Results taken from BindingDB's records for PubMed 36240545 (n/a, 2022).

Biological target: T1, X-box-binding protein 1 (Homo sapiens, UniProt P17861)
T1 sequence (P17861 whole entry): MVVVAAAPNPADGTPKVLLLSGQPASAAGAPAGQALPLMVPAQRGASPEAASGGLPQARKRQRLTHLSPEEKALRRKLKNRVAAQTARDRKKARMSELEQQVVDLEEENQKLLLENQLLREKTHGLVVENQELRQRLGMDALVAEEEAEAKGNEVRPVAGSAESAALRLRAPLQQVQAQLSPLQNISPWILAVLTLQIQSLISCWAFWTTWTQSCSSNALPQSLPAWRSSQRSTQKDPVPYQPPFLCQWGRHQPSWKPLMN
Assay: Inhibition of thapsigargin-induced XBP1-luciferase activation in human HeLa cells incubated for 24 hrs by luciferase assay

IC50: 67 µM
Structure (SMILES): CO[C@H]1/C=C/C=C/C=C/C[C@H](OC(=O)[C@@H](C)NC(=O)C2CCCCC2)[C@H](C)[C@@H](O)/C(C)=C\CCC2=C(SC)C(=O)C=C(NC(=O)C1)C2=O
